From PMC10301896 (Pharmaceutics, 2023)
Structures can show the parent of a compound that is named as a salt.

Key:
[1] = control rabbits
[2] = cited from earlier work
[3] = in vivo; settings: male, albino, rabbit, iv, 10 mg/kg
[4] = Chelation with Al3+ ion in vitro (precipitation with AlCl3); type: physicochemical; settings: drug 50 μM, pH 6.5, 30 min, 24 °C
Experimental: AlCl3 was also dissolved in the same buffer at a concentration of 50 μM, 100 μM, 200 μM, 1 mM, or 2 mM, and each drug solution and AlCl3 solution were mixed at an equal volume. The mixture solution was shaken, stood for 30 min at 24 °C and centrifuged. The supernatant was filtrated through a syringe filter with 0.22 μm of pore size (Millipore, Tokyo, Japan).

[5] = in vivo; settings: for AUC(0-t) / AUC(0-inf) / bioavailability / Cmax / Tmax: male, albino, rabbit, in vivo, po, 150 mg/kg, TC 150 mg/kg orally; for AUC(0-t): AUC0–6h; for AUC(0-inf): AUC0–∞; for bioavailability: Bioavailability (absolute oral)
Experimental: Rabbits were supplied solid food for rabbits (CR-3M, CLEA Japan, Inc., Tokyo, Japan), and the average amount of CR-3M that each rabbit ingested was 100–110 g/day. CR-3M contains various vitamins and cationic metals including Ca, Mg, and iron (Fe^2+, Fe^3+) in addition to various energy sources. […] Coprophagy was not prevented in control rabbits.
After administration orally by stomach intubation, blood samples (100 μL each) were taken periodically from the ear vein at 0.25, 0.5, 1, 2, 4 and 6 h. Blood samples were centrifuged at 3000× g for 10 min to obtain plasma samples.

Structure (SMILES): CN(C)[C@@H]1C(O)=C(C(N)=O)C(=O)[C@@]2(O)C(O)=C3C(=O)c4c(O)cccc4[C@@](C)(O)[C@H]3C[C@@H]12 [TC, tetracycline hydrochloride]
- β ([1]; […] iv infusion, LFX 20, CFX 30, TC 10 mg/kg): 0.28 ± 0.10 h⁻¹
- Total plasma clearance (CLtotal), Doseiv/AUC0–∞ ([1]; iv infusion): 18.83 mL/min/kg
- Oral bioavailabilities in humans ([2]; LFX 200–750 mg, CFX 200–1000 mg, TC 250 mg, ref references listed in the discussion section): 77–88% (250 mg)
- Absolute oral bioavailability ([2]; humans, dose of 250 mg): 77–88%
- AUC(0-t) [3]: 7570 ± 1380 ng·h/mL
- Precipitation (%) ([4]; AlCl3 25 μM): 63.2 ± 21.3%
- Precipitation (%) ([4]; AlCl3 50 μM): 84.0 ± 13.9%
- Precipitation (%) ([4]; AlCl3 100 μM): 91.6 ± 7.3%
- Precipitation (%) ([4]; AlCl3 500 μM): 96.2 ± 5.7%
- Precipitation (%) ([4]; AlCl3 1 mM): 99.4 ± 1.19%
- TC in plasma after oral administration ([5]; at a lower dose than 30 mg/kg, rabbits): not detected
- AUC(0-t) ([5]; EDTA-treated rabbits): 4680 ± 930 ng·h/mL
- AUC(0-t) ([5]; control rabbits): 2540 ± 910 ng·h/mL
- AUC(0-inf) ([5]; EDTA-treated rabbits): 6490 ± 1080 ng·h/mL
- AUC(0-inf) ([5]; control rabbits): 3390 ± 1260 ng·h/mL
- bioavailability ([5]; EDTA-treated rabbits): 4.9 ± 0.81%
- bioavailability ([5]; control rabbits): 2.56 ± 0.95%
- Cmax ([5]; EDTA-treated rabbits): 1120 ± 280 ng/mL
- Cmax ([5]; control rabbits): 730 ± 220 ng/mL
- Tmax ([5]; EDTA-treated rabbits): 2 h
- Tmax ([5]; control rabbits): 1.67 ± 0.58 h
